Values quoted from earlier work, collected in patent US8273874B2, “Method of dynamic nuclear polarisation (DNP) and compounds and compositions for use in the method” (GE Healthcare AS, priority 2006, dated 2012).

Settings: human full blood at 37° C.

T1 relaxation: about 42 s
Structure (SMILES): CC(=O)[13C](=O)O [^13C1-pyruvate]
